Values of other authors in PMC4492579, “Potent and Selective Triazole-Based Inhibitors of the Hypoxia-Inducible Factor Prolyl-Hydroxylases with Activity in the Murine Brain” (PLoS ONE, 2015).

Experiments:
Parameters in all cases: method as in PMID 26682036
Details in all cases: cited from earlier work
JARID1C (KDM5C) = JARID1C (KDM5C) (Homo sapiens, UniProt P41229)
JMJD2A (KDM4A) = molecular target: T1, JMJD2A (KDM4A) (Homo sapiens, UniProt O75164)
T1 sequence (O75164 1-1064): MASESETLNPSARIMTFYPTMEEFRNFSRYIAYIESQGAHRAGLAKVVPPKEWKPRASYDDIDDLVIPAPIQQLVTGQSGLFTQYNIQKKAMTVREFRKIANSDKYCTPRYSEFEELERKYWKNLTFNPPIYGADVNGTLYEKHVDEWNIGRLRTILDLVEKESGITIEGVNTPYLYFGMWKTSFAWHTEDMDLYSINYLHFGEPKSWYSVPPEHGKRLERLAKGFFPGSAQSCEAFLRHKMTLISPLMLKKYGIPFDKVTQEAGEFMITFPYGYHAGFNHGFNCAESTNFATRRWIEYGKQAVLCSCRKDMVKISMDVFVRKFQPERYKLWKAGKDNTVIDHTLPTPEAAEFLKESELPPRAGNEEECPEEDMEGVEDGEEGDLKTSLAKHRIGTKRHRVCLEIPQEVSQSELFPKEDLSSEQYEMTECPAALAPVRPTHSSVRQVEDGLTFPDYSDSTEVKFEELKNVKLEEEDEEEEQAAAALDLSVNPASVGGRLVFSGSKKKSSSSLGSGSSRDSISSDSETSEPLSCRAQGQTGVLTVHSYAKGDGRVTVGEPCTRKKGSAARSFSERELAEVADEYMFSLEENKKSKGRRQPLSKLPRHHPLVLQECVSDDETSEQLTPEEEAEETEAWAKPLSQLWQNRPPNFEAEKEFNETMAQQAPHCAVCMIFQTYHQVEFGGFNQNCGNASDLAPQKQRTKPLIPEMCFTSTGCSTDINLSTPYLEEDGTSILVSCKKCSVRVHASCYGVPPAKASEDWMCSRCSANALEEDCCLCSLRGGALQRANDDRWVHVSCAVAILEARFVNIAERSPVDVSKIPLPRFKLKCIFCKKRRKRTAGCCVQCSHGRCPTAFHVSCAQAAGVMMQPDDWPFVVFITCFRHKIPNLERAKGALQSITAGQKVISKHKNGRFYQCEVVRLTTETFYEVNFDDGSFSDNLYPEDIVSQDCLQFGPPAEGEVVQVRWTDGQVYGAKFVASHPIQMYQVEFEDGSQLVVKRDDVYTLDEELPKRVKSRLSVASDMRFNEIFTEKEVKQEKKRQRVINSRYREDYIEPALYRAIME

FBXL11 (KDM2A) = molecular target: T2, FBXL11 (KDM2A) (Homo sapiens, UniProt Q9Y2K7)
T2 sequence (Q9Y2K7 1-1162): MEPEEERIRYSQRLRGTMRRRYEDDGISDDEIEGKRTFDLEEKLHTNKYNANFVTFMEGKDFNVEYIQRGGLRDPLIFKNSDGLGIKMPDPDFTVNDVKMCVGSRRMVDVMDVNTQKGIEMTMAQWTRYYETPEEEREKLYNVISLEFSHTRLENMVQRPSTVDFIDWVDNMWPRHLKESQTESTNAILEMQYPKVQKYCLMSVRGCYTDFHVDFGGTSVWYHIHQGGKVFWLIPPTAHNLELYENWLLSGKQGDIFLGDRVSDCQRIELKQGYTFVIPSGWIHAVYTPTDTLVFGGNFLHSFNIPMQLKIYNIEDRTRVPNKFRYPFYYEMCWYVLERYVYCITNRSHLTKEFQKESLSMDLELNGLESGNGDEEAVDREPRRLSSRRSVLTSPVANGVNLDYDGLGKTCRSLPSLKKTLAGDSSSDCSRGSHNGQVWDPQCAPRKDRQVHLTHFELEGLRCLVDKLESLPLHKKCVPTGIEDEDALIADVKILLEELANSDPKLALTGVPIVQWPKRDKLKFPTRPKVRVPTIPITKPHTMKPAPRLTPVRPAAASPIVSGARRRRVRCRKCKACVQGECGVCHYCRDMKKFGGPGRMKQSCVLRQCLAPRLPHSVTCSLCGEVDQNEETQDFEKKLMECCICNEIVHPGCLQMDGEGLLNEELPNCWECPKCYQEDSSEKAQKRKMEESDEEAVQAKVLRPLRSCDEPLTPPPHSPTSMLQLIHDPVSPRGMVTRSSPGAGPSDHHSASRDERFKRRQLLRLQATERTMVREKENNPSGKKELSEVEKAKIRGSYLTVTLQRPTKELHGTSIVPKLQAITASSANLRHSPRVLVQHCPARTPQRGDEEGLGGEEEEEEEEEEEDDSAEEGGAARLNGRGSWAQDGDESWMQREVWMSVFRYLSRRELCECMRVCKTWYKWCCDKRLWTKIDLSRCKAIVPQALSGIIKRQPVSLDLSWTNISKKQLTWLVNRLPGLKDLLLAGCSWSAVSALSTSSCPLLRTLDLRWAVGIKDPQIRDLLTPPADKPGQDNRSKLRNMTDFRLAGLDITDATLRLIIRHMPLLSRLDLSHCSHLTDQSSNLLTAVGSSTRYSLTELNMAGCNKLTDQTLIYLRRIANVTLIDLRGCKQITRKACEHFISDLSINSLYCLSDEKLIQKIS

JMJD3 (KDM6B) = JMJD3 (KDM6B) (Homo sapiens, UniProt O15054)
JMJD3 (KDM6B), sequence (O15054 whole entry): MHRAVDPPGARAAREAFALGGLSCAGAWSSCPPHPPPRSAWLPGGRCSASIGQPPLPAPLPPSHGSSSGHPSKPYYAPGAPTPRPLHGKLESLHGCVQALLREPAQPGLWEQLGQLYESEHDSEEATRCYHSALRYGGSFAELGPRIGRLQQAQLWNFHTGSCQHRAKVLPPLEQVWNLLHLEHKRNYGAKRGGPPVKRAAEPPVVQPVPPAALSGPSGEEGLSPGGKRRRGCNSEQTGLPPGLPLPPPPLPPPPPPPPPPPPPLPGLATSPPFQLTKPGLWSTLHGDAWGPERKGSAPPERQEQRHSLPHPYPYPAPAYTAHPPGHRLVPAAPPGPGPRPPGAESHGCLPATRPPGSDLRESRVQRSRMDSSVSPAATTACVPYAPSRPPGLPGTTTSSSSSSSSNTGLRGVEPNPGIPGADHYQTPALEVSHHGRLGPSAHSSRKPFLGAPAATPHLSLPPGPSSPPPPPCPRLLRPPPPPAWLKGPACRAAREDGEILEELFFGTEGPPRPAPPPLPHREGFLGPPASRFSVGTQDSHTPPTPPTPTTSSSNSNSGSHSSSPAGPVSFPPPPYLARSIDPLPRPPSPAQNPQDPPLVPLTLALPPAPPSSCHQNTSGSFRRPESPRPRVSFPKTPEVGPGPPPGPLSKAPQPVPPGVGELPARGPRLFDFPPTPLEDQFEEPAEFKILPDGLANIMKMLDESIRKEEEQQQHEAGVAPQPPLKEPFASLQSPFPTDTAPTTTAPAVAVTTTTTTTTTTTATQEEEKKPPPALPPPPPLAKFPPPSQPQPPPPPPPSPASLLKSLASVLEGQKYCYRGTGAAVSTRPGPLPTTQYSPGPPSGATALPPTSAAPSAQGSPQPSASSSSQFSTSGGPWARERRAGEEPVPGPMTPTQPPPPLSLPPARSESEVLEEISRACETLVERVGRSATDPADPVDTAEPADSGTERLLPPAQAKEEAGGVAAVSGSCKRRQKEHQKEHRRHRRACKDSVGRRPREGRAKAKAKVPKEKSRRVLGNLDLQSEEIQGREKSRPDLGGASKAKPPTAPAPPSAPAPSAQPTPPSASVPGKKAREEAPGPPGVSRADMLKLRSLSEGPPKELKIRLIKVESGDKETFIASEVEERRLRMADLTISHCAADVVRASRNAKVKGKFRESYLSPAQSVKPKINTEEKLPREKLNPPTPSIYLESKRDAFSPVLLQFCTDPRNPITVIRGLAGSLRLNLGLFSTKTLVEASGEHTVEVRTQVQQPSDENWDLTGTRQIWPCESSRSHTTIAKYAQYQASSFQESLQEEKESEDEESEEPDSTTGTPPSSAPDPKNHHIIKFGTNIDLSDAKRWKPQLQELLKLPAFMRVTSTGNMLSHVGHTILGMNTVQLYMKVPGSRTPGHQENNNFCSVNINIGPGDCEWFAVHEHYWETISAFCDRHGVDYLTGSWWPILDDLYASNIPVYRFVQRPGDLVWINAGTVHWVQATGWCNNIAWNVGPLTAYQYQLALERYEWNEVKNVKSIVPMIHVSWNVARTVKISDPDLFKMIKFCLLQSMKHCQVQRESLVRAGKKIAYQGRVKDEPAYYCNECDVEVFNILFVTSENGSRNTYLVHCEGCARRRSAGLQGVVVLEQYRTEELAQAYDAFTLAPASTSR

JARID1C (KDM5C), sequence (P41229 whole entry): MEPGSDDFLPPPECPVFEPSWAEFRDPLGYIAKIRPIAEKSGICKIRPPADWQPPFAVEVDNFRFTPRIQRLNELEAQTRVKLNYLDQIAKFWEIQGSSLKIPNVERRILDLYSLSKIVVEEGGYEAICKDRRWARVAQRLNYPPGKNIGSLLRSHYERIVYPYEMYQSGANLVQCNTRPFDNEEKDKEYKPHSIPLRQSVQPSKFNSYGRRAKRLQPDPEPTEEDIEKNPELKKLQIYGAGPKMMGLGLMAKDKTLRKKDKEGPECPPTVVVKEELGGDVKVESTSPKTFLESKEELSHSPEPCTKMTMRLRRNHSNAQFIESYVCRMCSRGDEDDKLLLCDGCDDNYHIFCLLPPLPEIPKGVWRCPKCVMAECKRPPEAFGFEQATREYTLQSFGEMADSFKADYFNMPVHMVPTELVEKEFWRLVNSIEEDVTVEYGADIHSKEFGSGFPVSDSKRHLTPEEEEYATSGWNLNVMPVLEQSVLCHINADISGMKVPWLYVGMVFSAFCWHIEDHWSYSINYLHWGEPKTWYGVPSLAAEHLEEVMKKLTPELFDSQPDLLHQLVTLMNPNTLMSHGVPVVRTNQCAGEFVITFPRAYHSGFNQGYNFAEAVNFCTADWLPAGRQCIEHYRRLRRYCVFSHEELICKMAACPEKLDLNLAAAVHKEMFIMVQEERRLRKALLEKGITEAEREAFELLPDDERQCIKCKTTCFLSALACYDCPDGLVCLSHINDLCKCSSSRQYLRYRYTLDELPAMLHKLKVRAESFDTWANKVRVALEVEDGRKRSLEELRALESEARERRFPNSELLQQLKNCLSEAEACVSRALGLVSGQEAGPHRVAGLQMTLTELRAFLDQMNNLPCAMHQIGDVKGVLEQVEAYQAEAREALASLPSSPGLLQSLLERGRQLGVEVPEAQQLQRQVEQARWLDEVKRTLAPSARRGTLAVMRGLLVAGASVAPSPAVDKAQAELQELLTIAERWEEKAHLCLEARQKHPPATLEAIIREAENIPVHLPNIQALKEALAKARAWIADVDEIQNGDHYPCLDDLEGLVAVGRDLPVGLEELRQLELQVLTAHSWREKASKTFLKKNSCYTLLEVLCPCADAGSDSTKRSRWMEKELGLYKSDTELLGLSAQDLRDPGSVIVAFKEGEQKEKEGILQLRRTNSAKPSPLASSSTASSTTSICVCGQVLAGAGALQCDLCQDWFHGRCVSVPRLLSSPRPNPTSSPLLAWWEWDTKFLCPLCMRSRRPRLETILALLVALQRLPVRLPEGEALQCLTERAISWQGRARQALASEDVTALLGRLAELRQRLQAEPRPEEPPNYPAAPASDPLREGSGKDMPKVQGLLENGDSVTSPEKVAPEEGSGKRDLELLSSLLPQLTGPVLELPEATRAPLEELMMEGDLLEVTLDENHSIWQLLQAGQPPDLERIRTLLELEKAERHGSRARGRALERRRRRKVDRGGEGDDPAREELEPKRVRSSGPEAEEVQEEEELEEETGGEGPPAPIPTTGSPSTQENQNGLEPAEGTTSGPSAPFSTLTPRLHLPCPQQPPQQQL

SMILES: O=C(O)CNC(=O)c1c(O)c2ccccc2n(Cc2ccccc2)c1=O [IOX2]
- IC50 (JARID1C (KDM5C)): 159 µM
- IC50 (JMJD2A (KDM4A)): 100 µM
- IC50 (FBXL11 (KDM2A)): 52 µM
- IC50 (JMJD3 (KDM6B)): > 100 µM
